Patent publication US8946247B2, “Quinazoline carboxamide azetidines” (Merck Patent GmbH, priority 2010, dated 2015)

Columns and labels:
P70S6K (T412E mutant) = target: T1, P70S6K (T412E mutant) (Homo sapiens, UniProt P23443, T412E); test: p70S6K Enzyme Assay; format: biochemical; conditions: 24 μM ATP, 90 min at 25° C., Caliper mobility shift
T1 construct: purchased Millipore
Description: p70S6K inhibitor compounds were diluted and plated in 96 well plates. A reaction mixture including the following components were then added to the compound plate to initiate the enzyme reaction; P70S6K (3 nM, T412E mutant, Millipore) was mixed with 24 μM ATP in an assay buffer containing 100 mM Hepes (pH 7.5), 5 mM MgCl2, 1 mM DTT, 0.015% Brij and 1 μM of the substrate peptide FITC-AHA-AKRRRLSSLRA-OH (derived from the S6 ribosomal protein sequence, FITC=fluorescein isothiocyanate, AHA=6-aminohexanoic acid). The reaction was incubated for 90 min at 25° C., before the addition of 10 mM EDTA to stop the reaction. The proportion of substrate and product (phosphorylated) peptide was analysed on a Caliper Life Sciences Lab Chip 3000, using a pressure of −1.4 psi, and upstream and downstream voltages of −3000 and −700 respectively. Product peaks were resolved before substrate peaks on the resulting chromatograms.
To assess the inhibitory potential of the compounds, IC50-values were determined, as shown in Chemical Synthesis section above.

Aurora B = target: T2, Aurora B (Homo sapiens, UniProt Q96GD4); test: Aurora B Kinase Assay; format: biochemical; conditions: GST-Aurora B (1-344), 10 uM ATP, 90 min at 25 C
T2 construct: GST-Aurora B (1-344 amino acids); GST (N); purchased Carna Biosciences 05-102
T2 sequence (Q96GD4 whole entry, the tested form may be a part): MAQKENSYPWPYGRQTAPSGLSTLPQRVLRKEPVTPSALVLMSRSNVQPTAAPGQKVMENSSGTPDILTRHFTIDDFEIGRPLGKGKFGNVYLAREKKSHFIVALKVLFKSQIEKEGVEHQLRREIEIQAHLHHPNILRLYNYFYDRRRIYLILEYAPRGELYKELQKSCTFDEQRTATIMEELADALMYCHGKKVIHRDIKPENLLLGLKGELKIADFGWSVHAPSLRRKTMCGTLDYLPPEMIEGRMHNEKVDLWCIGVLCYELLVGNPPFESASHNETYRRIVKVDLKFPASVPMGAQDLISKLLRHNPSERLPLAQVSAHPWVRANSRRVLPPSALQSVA
T2 sequence (Q9NQS7 803-918 partner limits assumed): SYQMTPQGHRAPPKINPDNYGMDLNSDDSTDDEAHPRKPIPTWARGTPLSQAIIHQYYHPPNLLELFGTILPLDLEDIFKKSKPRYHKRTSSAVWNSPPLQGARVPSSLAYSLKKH
Description: To measure inhibitor activity of Aurora B inhibitors in the Caliper Life Sciences LC3000, a TTP Mosquito liquid handling instrument was used to place 0.25 ul of the appropriate concentration of inhibitor in 100% DMSO (for a dose response curve calculation) into each well of a 384-well plate. To this reaction components was added to a final volume of 25 ul: • 0.1 ng/ul GST-Aurora B (1-344 amino acids), (Carna Biosciences 05-102. N-terminal GST fusion with His tagged INCEP, accession number Q96GD4). • 10 uM ATP (Fluka, 02055) • 1 mM DTT (Sigma, D0632) • 1 mM MgCl2 (Sigma, M1028) • 1 uM substrate peptide (sequence FITC-LRRASLG-(CONH2), synthesized by Tufts Peptide Synthesis service. • 100 mM HEPES pH 7.5 (Calbiochem, 391338) • 0.015% Brij-35 (Sigma, B4184)
(§1) The reaction was incubated for 90 min at 25 C, and then stopped by the addition of 70 ul of Stop buffer (100 mM HEPES pH 7.5, 0.015% Brij-35, 10 mM EDTA (Sigma, E7889)).
The plate was read on a Caliper LC 3000 in an Off-Chip mobility shift assay format, using the following parameters for a 12-sipper chip: screening pressure −1.8 psi, upstream voltage −2700, downstream voltage −1000. These conditions caused unphosphorylated substrate and phosphorylated product peptide to resolve as separate peaks allowing direct measurement of percentage of conversion of substrate to product. The percent conversion was plotted against concentration of inhibitor to produce a sigmoidal dose response curve, from which an IC50 was calculated using XLFit for Microsoft Excel.

Akt1 = target: T3, Akt1 (Homo sapiens, UniProt P31749); test: AKT/PKB Kinase Assay; format: biochemical; conditions: His-AKT (Full Length), 160 uM ATP, 90 min at 25 C
T3 construct: 0.1 ng/ul His-AKT (Full Length), (Invitrogen, Part #P2999, Lot #641228C); His; purchased Invitrogen P2999
T3 sequence (P31749 whole entry): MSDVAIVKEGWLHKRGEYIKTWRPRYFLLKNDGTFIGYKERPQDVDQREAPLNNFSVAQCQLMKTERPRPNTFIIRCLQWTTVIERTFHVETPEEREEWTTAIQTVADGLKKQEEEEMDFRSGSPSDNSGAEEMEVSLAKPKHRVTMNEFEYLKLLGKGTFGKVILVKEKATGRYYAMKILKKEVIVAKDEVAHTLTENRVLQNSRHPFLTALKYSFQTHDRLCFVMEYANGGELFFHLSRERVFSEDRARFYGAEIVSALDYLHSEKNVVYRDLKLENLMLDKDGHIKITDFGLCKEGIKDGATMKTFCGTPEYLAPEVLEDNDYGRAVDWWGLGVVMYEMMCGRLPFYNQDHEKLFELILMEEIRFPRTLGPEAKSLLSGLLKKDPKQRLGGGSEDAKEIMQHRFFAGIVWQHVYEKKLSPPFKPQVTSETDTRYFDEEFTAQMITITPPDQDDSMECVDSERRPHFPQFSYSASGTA
Description: In order to measure AKT inhibition in the Caliper Life Sciences LC3000, a TTP Mosquito liquid handling instrument was used to place 125 nl of the appropriate concentration of inhibitor in 100% DMSO (for a dose response curve calculation) into each well of a 384-well plate. To this reaction components were added to a final volume of 12.5 ul: • 0.1 ng/ul His-AKT (Full Length), (Invitrogen, Part #P2999, Lot #641228C) • 160 uM ATP (Fluke, 02055) • 1 mM DTT (Sigma, D0632) • 1 mM MgCl2 (Sigma, M1028) • 1 uM substrate peptide (sequence FITC-AHA-GRPRTSSFAEG-NH2), synthesized by Tufts Peptide Synthesis service. • 100 mM HEPES pH 7.5 (Calbiochem, 391338) • 0.015% Brij-35 (Sigma, B4184)
as §1
The plate was read on a Caliper LC 3000 in an Off-Chip mobility shift assay format, using the following parameters for a 12-sipper chip: screening pressure −2.3 psi, upstream voltage −500, and downstream voltage −3000.
These conditions cause unphosphorylated substrate and phosphorylated product peptide to resolve as separate peaks allowing direct measurement of percentage of conversion of substrate to product. The percent conversion was plotted against concentration of inhibitor to produce a sigmoidal dose response curve, from which an IC50 was calculated.

pS6 MDA-MB-468 = test: Cellular Activity Assay (phospho-S6 in MDA-MB-468 cells); format: cell-based; conditions: Homo sapiens, 2 hr compound incubation, percent pS6-positive cells
Description: MDA-MB-468 cells were grown in DMEM containing glutamine supplemented with 10% Fetal Bovine Serum (FBS) and 1× antibiotics. Cells were maintained by splitting 1:3 twice a week.
For the assay, cells were plated the evening before at a density of 4000 cells per well in black polyD lysine coated 384 well plates. Cells were incubated overnight (16 to 20 hours) in growth media. Compounds at an appropriate concentration were added to the wells and incubated for 2 hr. Controls included: i) no primary, ii) rabbit isotype, iii) propidium iodide (red) only and iv) anti-phospho-S6 antibody alone (green only). Cells were then fixed in 4% paraformaldehyde for 15-20 minutes at room temperature, then washed 3×80 ul with PBS.
50 ul 10% normal goat serum (NGS) with 0.2% triton X 100 in PBS were added and incubated for 30 to 60 minutes at room temperature. Anti-phospho-S6 antibody was diluted 1:800 2% with NGS in 0.2% TritonX-100 and 30 ul added to appropriate wells. The wells were incubated overnight at 4 degrees Celsius.
Then the wells were washed with 3×80 uL PBS. The secondary green fluorescence labeled antibody (Alexa Fluor® 488 F(ab′)2 fragment goat Anti-rabbit IgG (H+L)), was diluted 1:1500 in 2% NGS with 0.2% TritonX-100, and 30 ul were added to the appropriate wells which were then incubated in the dark at room temperature for 60 minutes. Then they were washed with 4×80 ul PBS. Propidium iodide (1.5 mM stock) was diluted 1:1000 in PBS, and 50 ul were added to the appropriate wells and incubated for 30 minutes at room temperature in the dark. Propidium iodide was not washed out. Plates were read on the Acumen Explorer.
Red and green cell populations were determined using controls. The number of green cells (pS6) and total number of cells (red) were then counted and the percentage of green cells was calculated. Percent positive cell data was plotted on a log scale against concentration of compounds and IC50 values were calculated from dose response curves.

T1 sequence (P23443 1-421 T412E limits assumed): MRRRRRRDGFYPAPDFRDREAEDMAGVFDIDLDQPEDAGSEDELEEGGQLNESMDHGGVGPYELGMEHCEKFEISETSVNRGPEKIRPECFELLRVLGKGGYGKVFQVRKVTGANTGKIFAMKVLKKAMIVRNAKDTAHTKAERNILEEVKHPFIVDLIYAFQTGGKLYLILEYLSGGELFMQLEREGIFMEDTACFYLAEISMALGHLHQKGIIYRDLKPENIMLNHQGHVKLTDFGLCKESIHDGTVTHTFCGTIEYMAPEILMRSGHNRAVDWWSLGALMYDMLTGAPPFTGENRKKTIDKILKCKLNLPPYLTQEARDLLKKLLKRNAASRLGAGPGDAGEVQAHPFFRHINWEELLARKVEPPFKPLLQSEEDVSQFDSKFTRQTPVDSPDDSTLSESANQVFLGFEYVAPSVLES

| SMILES | IC50 (P70S6K (T412E mutant)) | IC50 (Aurora B) | IC50 (Akt1) | IC50 (pS6 MDA-MB-468) |
| --- | --- | --- | --- | --- |
| NC(=O)c1cccc2c(N[C@H](CN3CCC3)c3ccc(F)c(F)c3F)ncnc12 [Example 19, 4-[(S)-2-Azetidin-1-yl-1-(2,3,4-trifluorophenyl)-ethylamino]-quinazoline-8-carboxylic acid amide] | 2.1 nM | 360 nM | 23 nM | 62 nM |
| NC(=O)c1cccc2c(N[C@H](CN3CCC3)c3ccc(F)cc3Cl)ncnc12 [Example 24, 4-[(S)-2-Azetidin-1-yl-1-(2-chloro-4-fluoro-phenyl)-ethylamino]-quinazoline-8-carboxylic acid amide] | 8.7 nM | 107 nM | 77 nM | 1030 nM |
| NC(=O)c1cccc2c(N[C@H](CN3CCC3)c3cccc(C(F)(F)F)c3)ncnc12 [Example 27, 4-[(S)-2-Azetidin-1-yl-1-(3-trifluoromethyl-phenyl)-ethylamino]-quinazoline-8-carboxylic acid amide] | 1.4 nM | 180 nM | 5.6 nM | 56 nM |
| COc1cc(C(N)=O)c2ncnc(N[C@H](CN3CCC3)c3ccc(F)c(C(F)(F)F)c3)c2c1 [Example 47, 4-[(S)-2-Azetidin-1-yl-1-(4-fluoro-3-trifluoromethyl-phenyl)-ethylamino]-6-methoxy-quinazoline-8-carboxylic acid amide] | 2.2 nM | 200 nM | 1.5 nM | 27 nM |
| NC(=O)c1cccc2c(N[C@H](CN3CCC3)c3cc(F)c(F)cc3F)ncnc12 [Example 18, 4-[(S)-2-Azetidin-1-yl-1-(2,4,5-trifluorophenyl)-ethylamino]-quinazoline-8-carboxylic acid amide] | 3.8 nM | 220 nM | 36 nM | 85 nM |
| NC(=O)c1cccc2c(N[C@H](CN3CCC3)c3cccc(Br)c3)ncnc12 [Example 13, 4-[(S)-2-Azetidin-1-yl-1-(3-bromophenyl)-ethylamino]-quinazoline-8-carboxylic acid amide] | 0.3 nM | 17 nM | 5 nM | 25 nM |
| NC(=O)c1cccc2c(N[C@H](CN3CCC3)c3ccc(OC(F)(F)F)cc3)ncnc12 [Example 30, 4-[(S)-2-Azetidin-1-yl-1-(4-trifluoromethoxy-phenyl)-ethylamino]-quinazoline-8-carboxylic acid amide] | 1.7 nM | 370 nM | 187 nM | 199 nM |
| NC(=O)c1cccc2c(N[C@H](CN3CCC3)c3ccc(F)cc3F)ncnc12 [Example 15, 4-[(S)-2-Azetidin-1-yl-1-(2,4-difluorophenyl)-ethylamino]-quinazoline-8-carboxylic acid amide] | 6 nM | 200 nM | 84 nM | 144 nM |

The remaining lines, values ahead:

| IC50 (P70S6K (T412E mutant)) | IC50 (Aurora B) | IC50 (Akt1) | IC50 (pS6 MDA-MB-468) | SMILES |
| --- | --- | --- | --- | --- |
| 5.3 nM | 230 nM | 98 nM | 359 nM | NC(=O)c1cccc2c(N[C@H](CN3CCC3)c3cc(F)ccc3F)ncnc12 [Example 26, 4-[(S)-2-Azetidin-1-yl-1-(2,5-di-fluoro-phenyl)-ethylamino]-quinazoline-8-carboxylic acid amide] |
| 1.7 nM | 75 nM | 7.3 nM | 41 nM | NC(=O)c1cccc2c(N[C@H](CN3CCC3)c3ccc(F)c(C(F)F)c3)ncnc12 [Example 44, 4-[(S)-2-Azetidin-1-yl-1-(3-difluoromethyl-4-fluoro-phenyl)-ethylamino]-quinazoline-8-carboxylic acid amide] |
| 3.3 nM | 650 nM | 83 nM | 246 nM | N#Cc1cc([C@@H](CN2CCC2)Nc2ncnc3c(C(N)=O)cccc23)ccc1F [Example 39, 4-[(S)-2-Azetidin-1-yl-1-(3-cyano-4-fluorophenyl)-ethylamino]-quinazoline-8-carboxylic acid amide] |
| 1.3 nM | 150 nM | 11 nM | 29 nM | N#Cc1ccc([C@@H](CN2CCC2)Nc2ncnc3c(C(N)=O)cccc23)cc1 [Example 23, 4-[(S)-2-Azetidin-1-yl-1-(4-cyano-phenyl)-ethylamino]-quinazoline-8-carboxylic acid amide] |
| 1.1 nM | 47 nM | 10 nM | 16 nM | NC(=O)c1cccc2c(N[C@H](CN3CCC3)c3cccc(Cl)c3)ncnc12 [Example 2, 4-[(S)-2-Azetidin-1-yl-1-(3-chlorophenyl)-ethylamino]-quinazoline-8-carboxylic acid amide] |
| 2.4 nM | 285 nM | 7.3 nM | 28 nM | NC(=O)c1cccc2c(N[C@H](CN3CCC3)c3ccc(F)c(C(F)(F)F)c3)ncnc12 [Example 31, 4-[(S)-2-Azetidin-1-yl-1-(4-fluoro-3-trifluoromethyl-phenyl)-ethylamino]-quinazoline-8-carboxylic acid amide] |
| 1.6 nM | 120 nM | 23 nM | 32 nM | Cc1cc([C@@H](CN2CCC2)Nc2ncnc3c(C(N)=O)cccc23)ccc1F [Example 42, 4-[(S)-2-Azetidin-1-yl-1-(4-fluoro-3-methyl-phenyl)-ethylamino]-quinazoline-8-carboxylic acid amide] |
| 3.3 nM | 690 nM | 270 nM | 382 nM | N#Cc1cccc([C@@H](CN2CCC2)Nc2ncnc3c(C(N)=O)cccc23)c1 [Example 11, 4-[(S)-2-Azetidin-1-yl-1-(3-cyanophenyl)-ethylamino]-quinazoline-8-carboxylic acid amide] |
